Legend:
[1] = humans; cited from earlier work
[2] = following peripheral administration of nicotine; cited from earlier work
[3] = following repeated nicotine dosing; cited from earlier work
[4] = in vivo; cited from earlier work
[5] = test system: rodent model of nociceptive pain (tail-flick test); assay: Tail-flick test after intraperitoneal administration; format: in vivo, rat; details: male Sprague-Dawley rats, 5 mg/kg IP single dose, perchlorate salt, vs saline, n=6; preliminary data
Protocol: A study was performed to screen the analgesic activities of S(−) and R(+) enantiomers of nornicotine following administration by intraperitoneal route (IP) in a rodent model of nociceptive pain. The responses to acute thermal stimuli were determined using the tail-flick test [D′Amour F. E., Smith D. L. “A method for determining loss of pain sensation” J Pharmacol Exp Ther (1941), 72:74-79]. Tail-flick latency (TFL) was measured by recording the time from the onset of the heat stimulus to the tail to withdrawal of the tail from the heat source, using a standard tail-flick apparatus (EMDIE, Instrument Co., Roanoke, Va.). The sensitivity of the instrument was adjusted to provide an average baseline 2-3 seconds. Cut-off time of 10 s was used to avoid tail damage.
A single dose [5 mg/kg in perch salt form (perchlorate)] of each nornicotine enantiomer was administered (IP) in 6 male rats [Sprague-Dawley; about 90 days old, 350 g, (Harlan, Indianapolis, Ind.)]. Saline (vehicle, 1 ml/kg) served as control. TFL were determined prior to (twice, 15 min apart) and at 5, 15, 30, 45 and 60 min after i.p. administration. Data were presented as time courses of TFL (normalized for pre-injection baseline, s) [FIG. 1A] and areas under the curves (AUC0-60min) [FIG. 1B].

[6] = test system: rodent model of nociceptive pain (tail-flick test); assay: Tail-flick test after intrathecal administration; format: in vivo, rat; details: male rats, 10 mcg IT single dose, perchlorate salt, n=5, P<0.05 post-hoc SNK
Protocol: A study was performed to screen the analgesic activities of S(−) and R(+) enantiomers of nornicotine following administration by intrathecal route (IT) in a rodent model of nociceptive pain (tail-flick test).
In order to inject these drugs via the IT route chronic catheterization of the spinal subarachnoid space was performed in rats [Yaksh T., Rudy T. “Chronic catheterization of the spinal subarachnoid space” Physiol Behav (1976) 17:1031-1036 (with minor modification)]. Briefly, a 21 cm long P-10 polyethylene tubing (volume 10 mcl) which extended 8.5 cm beyond an incision in the atlanto-occipital membrane was secured to the scull with acrylic cement. The catheter rested in the vicinity of T-12 at the rostral face of the lumbar cord enlargement. The studies were initiated 1 week after implantation of the IT catheter.
A single dose [10 mcg in perch salt form (perchlorate)] of each enantiomer was administered (IT) in 5 male rats. Saline (vehicle; 10 mcl) was used as control. The responses to acute thermal stimuli were determined using the tail-flick test (baseline 2-3 seconds, cut-off 10 seconds). TFL were measured prior to (twice, 15 min apart) and at 5, 10, 15, 30, 45 and 60 min after IT administration. Data were presented as time courses of TFL (normalized for pre-injection baseline, s) [FIG. 2A] and areas under the curves (AUC0-60min) [FIG. 2B].

[7] = test system: rodent model of nociceptive pain (paw withdrawal test); assay: Thermal paw withdrawal test after intraperitoneal administration; format: in vivo, rat; details: male rats, 2.5, 5 and 10 mg/kg IP, free base, n=8; P<0.05 1-way ANOVA
Protocol: To further characterize the analgesic properties of S(−)nornicotine, a dose-response relationship was determined. Responsiveness to acute thermal noxious stimuli was assessed by a thermal paw withdrawal test [Hargreaves K. et al., “A new sensitive method for measuring thermal nociception in cutaneous hyperalgesia” Pain (1988) 32:77-88]. This test, which uses a ramp heat stimulus on the plantar surface of the paw, appears to generate more consistent analgesic responses to nicotinic drugs as compared to tail flick test. Plantar Stimulator Analgesia Meter (11TC, Life Science, Woodland Hills, Calif.) was used. Briefly, the rat was placed in a clear plastic chamber and allowed to acclimate for 5 min. After the acclimation period, the radiant heat was positioned under the glass floor directly beneath the plantar hind paw. The heat source activated a timer that was controlled by a photocell. The hind paw withdrawal interrupted the photocell and automatically stopped the timer. Latency to paw withdrawal (PWL) was measured to the nearest 0.1 s. […]
S(−)-Nornicotine was administered in three doses (2.5, 5 and 10 mg/kg in form of free base) via the IP route in 8 male rats. […] Responses (PWL, s) were measured prior to and at 5, 10, 15, 30, and 60 min after IP injection. For each rat and at each time point, response was normalized for baseline measured on the day of experiment. […]

[8] = test system: rodent model of chronic inflammatory pain (formalin test); assay: Formalin test (intra-plantar formalin) after intraperitoneal administration; format: in vivo, rat; details: male rats, 5 mg/kg IP fumarate salt, 15 min prior to formalin, n=6; for formalin-induced flinching, late (tonic) phase 20-60 min: significantly different from saline P<0.05
Protocol: A study was performed to screen the analgesic activities of S(−) and R(+) enantiomers of nornicotine following administration by intraperitoneal route (IP) in a rodent model of chronic inflammatory pain (formalin test). Intra-plantar injection of formalin produces a biphasic behavioral response consisting of flinching, lifting and licking behaviors in rodents. The first phase (acute, 0-20 min) results from direct stimulation of nociceptors (nociceptive pain) whereas the second phase (tonic, 20-60 min) involves central sensitization (a characteristic of neuropathic pain). Accordingly, the formalin test was used to determine the analgesic effects of S(−)- and R(+)-nornicotine [Wheeler-Aceto H., Covan A. “Standardization of the rat formalin test for the evaluation of analgesics” Psychopharmacology (1991) 104:35-44]. Formalin (50 mcl) was injected subcutaneously (SC) into the dorsal surface of the hind paw. The rat was placed in a Plexiglas cage and the intensity of pain (number of formalin-induced flinches) was rated in 5 min intervals for 60 min.
A single dose [5 mg/kg in salt form (fumarate)] of each nornicotine enantiomer and saline (control) was administered (IP) 15 min prior to formalin (SC) injection in 6 male rats. Data were presented as time courses of formalin-induced flinches (number) for S(−)-nornicotine, R(+)-nornicotine and saline [FIG. 4A] and areas under the curves (AUC) calculated for phase 1 (acute, 0-20 min) [FIG. 4B] and phase 2 (tonic, 20-60 min) [FIG. 4C].

Row | Compound | plasma half-life [1] [h] | residence in the rat's brain [2] [min] | accumulation in brain compared to nicotine [3] | oral bioavailability (in words) [4] | oral bioavailability [4] [%] | analgesic effect (tail-flick latency, AUC0-60min) [5] | analgesic effect (tail-flick latency, AUC0-60min) vs the other enantiomer [6] | analgesic effect (tail-flick latency, AUC0-60min) vs saline ([6]; preliminary data) | analgesic effect (paw withdrawal latency, AUC0-60min vs log dose) [7] | formalin-induced flinching, early (acute) phase 0-20 min [8] | formalin-induced flinching, late (tonic) phase 20-60 min [8] | potency and toxicity profile compared to R(+)-nornicotine (Dose escalation studies)
1 | Nornicotine | 8 | 166 | about 4 fold | good oral bioavailability |  |  |  |  |  |  |  | 
2 | CN1CCCC1c1cccnc1 (centres unmarked) [nicotine, reference compound] | 1 | 52 |  |  | 10 |  |  |  |  |  |  | 
3 | c1cncc([C@@H]2CCCN2)c1 [S(−)-nornicotine] |  |  |  |  |  | significantly greater as compared to saline | significantly greater as compared to R(+)-nornicotine | significantly greater as compared to saline | significantly related to dose | Neither enantiomer had significant effect | attenuated formalin-induced flinching | more favorable potency and toxicity profile
4 | c1cncc([C@H]2CCCN2)c1 [R(+)-nornicotine] |  |  |  |  |  | less pronounced |  |  |  | Neither enantiomer had significant effect | attenuated formalin-induced flinching | 

— patent US20100216847A1, “N[…] THE TREATMENT OF PAIN” (UNIVERSITY OF KENTUCKY RESEARCH FOUNDATION, priority 2006, published 2010)
